Results: ChEMBL document CHEMBL3525983, “Pharmacokinetics, metabolism, and disposition of rivoglitazone, a novel peroxisome proliferator-activated receptor γ agonist, in rats and monkeys” (Drug Metab Dispos, 2011)

Columns and labels:
[1] = Terminal elimination half life in F344/DuCrlCrlj rat at 0.1 mg/kg, iv administered via tail vein by LC-MS/MS analysis; assay type: ADME, organism-based; design: dose 0.1 mg/kg, dosed compound name [14C]Rivoglitazone, route intravenous; settings: in vivo, read-out: beta t1/2 (converted)
[2] = Terminal elimination half life in F344/DuCrlCrlj rat at 0.5 mg/kg, po administered via gavage by LC-MS/MS analysis; assay type: ADME, organism-based; design: dose 0.5 mg/kg, dosed compound name [14C]Rivoglitazone, route oral; settings: in vivo, read-out: beta t1/2 (converted)
[3] = Apparent total clearance in F344/DuCrlCrlj rat at 1 mg/kg, po administered via gavage by LC-MS/MS analysis; assay type: ADME, organism-based; design: dose 1 mg/kg, dosed compound name [14C]Rivoglitazone, route oral; settings: in vivo, read-out: CLt/F
[4] = Terminal elimination half life in monkey at 0.986 mg/kg, iv administered via tail vein by LC-MS/MS analysis; assay type: ADME, organism-based, Macaca mulatta; design: dose 0.986 mg/kg, dosed compound name [14C]Rivoglitazone, route intravenous; settings: rhesus monkey, in vivo, read-out: beta t1/2 (converted)
[5] = Volume of distribution at steady state in F344/DuCrlCrlj rat at 0.1 mg/kg, iv administered via tail vein by LC-MS/MS analysis; assay type: ADME, organism-based; design: dose 0.1 mg/kg, dosed compound name [14C]Rivoglitazone, route intravenous; settings: in vivo, read-out: Vdss
[6] = AUC (0 to infinity) in F344/DuCrlCrlj rat at 0.5 mg/kg, po administered via gavage by LC-MS/MS analysis; assay type: ADME, organism-based; design: time infinity, dose 0.5 mg/kg, dosed compound name [14C]Rivoglitazone, route oral; settings: plasma
[7] = Drug excretion in F344/DuCrlCrlj rat feces assessed as unchanged compound at 1 mg/kg, po administered via gavage measured during 0 to 48 hrs by radio-HPLC analysis; assay type: ADME, organism-based; design: dose 1 mg/kg, dosed compound name [14C]Rivoglitazone, route oral; settings: read-out: Compound recovery
[8] = Terminal elimination half life in monkey at 0.0986 mg/kg, iv administered via tail vein by LC-MS/MS analysis; assay type: ADME, organism-based, Macaca mulatta; design: dose 0.0986 mg/kg, dosed compound name [14C]Rivoglitazone, route intravenous; settings: rhesus monkey, in vivo, read-out: beta t1/2 (converted)
[9] = AUC (0 to infinity) in monkey at 0.0986 mg/kg, po administered via gavage by LC-MS/MS analysis; assay type: ADME, organism-based, Macaca mulatta; design: time infinity, dose 0.0986 mg/kg, dosed compound name [14C]Rivoglitazone, route oral; settings: rhesus monkey, plasma
[10] = Cmax in F344/DuCrlCrlj rat at 1 mg/kg, po administered via gavage by LC-MS/MS analysis; assay type: ADME, organism-based; design: dose 1 mg/kg, dosed compound name [14C]Rivoglitazone, route oral; settings: in vivo
[11] = Tmax in monkey at 0.493 mg/kg, po administered via gavage by LC-MS/MS analysis; assay type: ADME, organism-based, Macaca mulatta; design: dose 0.493 mg/kg, dosed compound name [14C]Rivoglitazone, route oral; settings: rhesus monkey, in vivo
[12] = AUC (0 to infinity) in F344/DuCrlCrlj rat at 0.1 mg/kg, iv administered via tail vein by LC-MS/MS analysis; assay type: ADME, organism-based; design: time infinity, dose 0.1 mg/kg, dosed compound name [14C]Rivoglitazone, route intravenous; settings: plasma
[13] = Tmax in F344/DuCrlCrlj rat at 0.5 mg/kg, po administered via gavage by LC-MS/MS analysis; assay type: ADME, organism-based; design: dose 0.5 mg/kg, dosed compound name [14C]Rivoglitazone, route oral; settings: in vivo
[14] = Retention time of the compound by LC-MS/MS analysis; assay type: physicochemical; design: dosed compound name [14C]Rivoglitazone
[15] = AUC (0 to infinity) in monkey at 0.986 mg/kg, iv administered via tail vein by LC-MS/MS analysis; assay type: ADME, organism-based, Macaca mulatta; design: time infinity, dose 0.986 mg/kg, dosed compound name [14C]Rivoglitazone, route intravenous; settings: rhesus monkey, plasma
[16] = Terminal elimination half life in monkey at 0.493 mg/kg, iv administered via tail vein by LC-MS/MS analysis; assay type: ADME, organism-based, Macaca mulatta; design: dose 0.493 mg/kg, dosed compound name [14C]Rivoglitazone, route intravenous; settings: rhesus monkey, in vivo, read-out: beta t1/2 (converted)
[17] = Drug excretion in bile duct-cannulated rat feces assessed as unchanged compound level administered through oral dose by radio-HPLC analysis; assay type: ADME; design: dosed compound name [14C]Rivoglitazone; settings: read-out: Compound recovery
[18] = Tmax in F344/DuCrlCrlj rat at 0.1 mg/kg, po administered via gavage by LC-MS/MS analysis; assay type: ADME, organism-based; design: dose 0.1 mg/kg, dosed compound name [14C]Rivoglitazone, route oral; settings: in vivo
[19] = Oral bioavailability in monkey at 0.0986 mg/kg administered via gavage by LC-MS/MS analysis; assay type: ADME, organism-based, Macaca mulatta; design: dosed compound name [14C]Rivoglitazone; settings: rhesus monkey, in vivo
[20] = Cmax in F344/DuCrlCrlj rat at 0.1 mg/kg, po administered via gavage by LC-MS/MS analysis; assay type: ADME, organism-based; design: dose 0.1 mg/kg, dosed compound name [14C]Rivoglitazone, route oral; settings: in vivo
[21] = Cmax in monkey at 0.986 mg/kg, po administered via gavage by LC-MS/MS analysis; assay type: ADME, organism-based, Macaca mulatta; design: dose 0.986 mg/kg, dosed compound name [14C]Rivoglitazone, route oral; settings: rhesus monkey, in vivo
Plasma [22] = experiment: Drug metabolism in F344/DuCrlCrlj rat plasma assessed as 2-((4-((2,4-dioxothiazolidin-5-yl)methyl)phenoxy)methyl)-1-methyl-1H-benzo[d]imidazol-6-yl hydrogen sulfate formation at 1 to 5 mg/kg, po administered as single dose via gavage by LC-MS/MS analysis; assay type: ADME, organism-based; design: dose 1-5 mg/kg, dosed compound name [14C]Rivoglitazone, route oral; settings: in vivo
[23] = Terminal elimination half life in F344/DuCrlCrlj rat at 0.5 mg/kg, iv administered via tail vein by LC-MS/MS analysis; assay type: ADME, organism-based; design: dose 0.5 mg/kg, dosed compound name [14C]Rivoglitazone, route intravenous; settings: in vivo, read-out: beta t1/2 (converted)
[24] = Drug excretion in bile duct-cannulated rat feces assessed as unchanged compound level administered through intravenous by radio-HPLC analysis; assay type: ADME; design: dosed compound name [14C]Rivoglitazone; settings: read-out: Compound recovery
[25] = Drug excretion in F344/DuCrlCrlj rat urine/feces assessed as unchanged compound at 1 mg/kg, po administered via gavage measured during 0 to 48 hrs by radio-HPLC analysis; assay type: ADME, organism-based; design: dose 1 mg/kg, dosed compound name [14C]Rivoglitazone, route oral; settings: urine and feces, read-out: Compound recovery
[26] = Volume of distribution at steady state in monkey at 0.493 mg/kg, iv administered via tail vein by LC-MS/MS analysis; assay type: ADME, organism-based, Macaca mulatta; design: dose 0.493 mg/kg, dosed compound name [14C]Rivoglitazone, route intravenous; settings: rhesus monkey, in vivo, read-out: Vdss
[27] = Apparent total clearance in F344/DuCrlCrlj rat at 0.5 mg/kg, po administered via gavage by LC-MS/MS analysis; assay type: ADME, organism-based; design: dose 0.5 mg/kg, dosed compound name [14C]Rivoglitazone, route oral; settings: in vivo, read-out: CLt/F
[28] = Oral bioavailability in monkey at 0.493 mg/kg administered via gavage by LC-MS/MS analysis; assay type: ADME, organism-based, Macaca mulatta; design: dosed compound name [14C]Rivoglitazone; settings: rhesus monkey, in vivo
[29] = AUC (0 to t) in monkey at 0.986 mg/kg, po administered via gavage by LC-MS/MS analysis; assay type: ADME, organism-based, Macaca mulatta; design: dose 0.986 mg/kg, dosed compound name [14C]Rivoglitazone, route oral; settings: rhesus monkey, plasma
[30] = AUC (0 to infinity) in F344/DuCrlCrlj rat at 0.1 mg/kg, po administered via gavage by LC-MS/MS analysis; assay type: ADME, organism-based; design: time infinity, dose 0.1 mg/kg, dosed compound name [14C]Rivoglitazone, route oral; settings: plasma
Plasma [31] = experiment: Drug uptake in monkey plasma assessed as unchanged compound at 1 to 5 mg/kg, po administered as single dose via gavage by LC-MS/MS analysis; assay type: ADME, organism-based, Macaca mulatta; design: dose 1-5 mg/kg, dosed compound name [14C]Rivoglitazone, route oral; settings: rhesus monkey, in vivo
[32] = Tmax in F344/DuCrlCrlj rat at 1 mg/kg, po administered via gavage by LC-MS/MS analysis; assay type: ADME, organism-based; design: dose 1 mg/kg, dosed compound name [14C]Rivoglitazone, route oral; settings: in vivo
[33] = Tmax in monkey at 0.0986 mg/kg, po administered via gavage by LC-MS/MS analysis; assay type: ADME, organism-based, Macaca mulatta; design: dose 0.0986 mg/kg, dosed compound name [14C]Rivoglitazone, route oral; settings: rhesus monkey, in vivo
[34] = Drug excretion in monkey urine assessed as unchanged compound at 1 mg/kg, po administered via gavage measured during 0 to 72 hrs by radio-HPLC analysis; assay type: ADME, organism-based, Macaca mulatta; design: dose 1 mg/kg, dosed compound name [14C]Rivoglitazone, route oral; settings: rhesus monkey, read-out: Compound recovery
[35] = Total clearance in F344/DuCrlCrlj rat at 0.5 mg/kg, iv administered via tail vein by LC-MS/MS analysis; assay type: ADME, organism-based; design: dose 0.5 mg/kg, dosed compound name [14C]Rivoglitazone, route intravenous; settings: in vivo
[36] = Drug excretion in monkey urine/feces assessed as unchanged compound at 1 mg/kg, po administered via gavage measured during 0 to 72 hrs by radio-HPLC analysis; assay type: ADME, organism-based, Macaca mulatta; design: dose 1 mg/kg, dosed compound name [14C]Rivoglitazone, route oral; settings: rhesus monkey, urine and feces, read-out: Compound recovery
[37] = Total clearance in F344/DuCrlCrlj rat at 0.1 mg/kg, iv administered via tail vein by LC-MS/MS analysis; assay type: ADME, organism-based; design: dose 0.1 mg/kg, dosed compound name [14C]Rivoglitazone, route intravenous; settings: in vivo
[38] = AUC (0 to t) in F344/DuCrlCrlj rat at 0.1 mg/kg, iv administered via tail vein by LC-MS/MS analysis; assay type: ADME, organism-based; design: dose 0.1 mg/kg, dosed compound name [14C]Rivoglitazone, route intravenous; settings: plasma
[39] = Total clearance in monkey at 0.0986 mg/kg, iv administered via tail vein by LC-MS/MS analysis; assay type: ADME, organism-based, Macaca mulatta; design: dose 0.0986 mg/kg, dosed compound name [14C]Rivoglitazone, route intravenous; settings: rhesus monkey, in vivo
[40] = Total clearance in monkey at 0.493 mg/kg, iv administered via tail vein by LC-MS/MS analysis; assay type: ADME, organism-based, Macaca mulatta; design: dose 0.493 mg/kg, dosed compound name [14C]Rivoglitazone, route intravenous; settings: rhesus monkey, in vivo
[41] = Cmax in monkey at 0.493 mg/kg, po administered via gavage by LC-MS/MS analysis; assay type: ADME, organism-based, Macaca mulatta; design: dose 0.493 mg/kg, dosed compound name [14C]Rivoglitazone, route oral; settings: rhesus monkey, in vivo
[42] = Apparent total clearance in F344/DuCrlCrlj rat at 0.1 mg/kg, po administered via gavage by LC-MS/MS analysis; assay type: ADME, organism-based; design: dose 0.1 mg/kg, dosed compound name [14C]Rivoglitazone, route oral; settings: in vivo, read-out: CLt/F

- half-life [1]: 4.55 h
- half-life [2]: 4.98 h
- CL/F [3]: 0.304 mL/min/kg
- half-life [4]: 6.79 h
- Vd [5]: 0.125 L/kg
- AUC(0-inf) [6]: 21800 ng·h/mL
- dose excreted [7]: 23.7%
- half-life [8]: 6.38 h
- AUC(0-inf) [9]: 4470 ng·h/mL
- Cmax [10]: 4570 ng/mL
- Tmax [11]: 4.25 h
- AUC(0-inf) [12]: 4670 ng·h/mL
- Tmax [13]: 1.13 h
- Retention_time [14]: 23 min
- AUC(0-inf) [15]: 57200 ng·h/mL
- half-life [16]: 6.21 h
- dose excreted [17]: 12.6%
- Tmax [18]: 3.25 h
- bioavailability [19]: 106%
- Cmax [20]: 409 ng/mL
- Cmax [21]: 2930 ng/mL
- Compound recovery (Plasma [22]): metabolite_detected
- half-life [23]: 4.84 h
- dose excreted [24]: 2.3%
- dose excreted [25]: 23.7%
- Vd [26]: 0.155 L/kg
- CL/F [27]: 0.352 mL/min/kg
- bioavailability [28]: 90.4%
- AUC(0-t) [29]: 35800 ng·h/mL
- AUC(0-inf) [30]: 4450 ng·h/mL
- Compound recovery (Plasma [31]): metabolite_detected
- Tmax [32]: 2.25 h
- Tmax [33]: 3 h
- dose excreted [34]: 0.3%
- clearance [35]: 0.333 mL/min/kg
- dose excreted [36]: 23.8%
- clearance [37]: 0.329 mL/min/kg
- AUC(0-t) [38]: 4530 ng·h/mL
- clearance [39]: 0.312 mL/min/kg
- clearance [40]: 0.371 mL/min/kg
- Cmax [41]: 1330 ng/mL
- CL/F [42]: 0.354 mL/min/kg
Structure (SMILES): COc1ccc2nc(COc3ccc(CC4SC(=O)NC4=O)cc3)n(C)c2c1.Cl (racemic)
